4 compounds from ChEMBL document CHEMBL1158743, “Tenellones A and B from a Diaporthe sp.: two highly substituted benzophenone inhibitors of parasite cGMP-dependent protein kinase activity” (J Nat Prod, 2005) can be followed below.

The target of data set [1] is cGMP-dependent protein kinase (Eimeria tenella, UniProt Q8MMZ8). Put plainly: Inhibition of Eimera tenella CGMP-dependent protein kinase by radiometric assay.
Another data set deals with Enterococcus faecium. Put plainly: Antibacterial activity against Enterococcus faecium. It is filed as functional.
For another data set, the system named is Staphylococcus aureus. Put plainly: Antibacterial activity against Staphylococcus aureus. The data set is classed as functional.
The species named for the next data set is Gallus gallus. Put plainly: Toxicity to Eimera tenella infected chickens given ad libitum at 100 ppm. Conditions: chicken, in vivo, po. The data set is classed as organism-based.
Another data set relates to Toxoplasma gondii. Put plainly: Antiparasitic activity against Toxoplasma gondii infected in human foreskin fibroblasts assessed as beta-galactosidase activity after 5 days by whole cell assay. The data set is classed as functional, organism-based. Particulars: 120 h.
The next data set has as its system Eimeria tenella. Put plainly: Antiparasitic activity against Eimera tenella infected in chickens given ad libitum at 100 ppm fed with diet. It is filed as functional, organism-based.

In brackets after ≈: the same amount, converted by molar mass. Activity calls are given as the source filed them. No cut-off for these calls is given here.

Chain of cGMP-dependent protein kinase (Q8MMZ8 whole entry): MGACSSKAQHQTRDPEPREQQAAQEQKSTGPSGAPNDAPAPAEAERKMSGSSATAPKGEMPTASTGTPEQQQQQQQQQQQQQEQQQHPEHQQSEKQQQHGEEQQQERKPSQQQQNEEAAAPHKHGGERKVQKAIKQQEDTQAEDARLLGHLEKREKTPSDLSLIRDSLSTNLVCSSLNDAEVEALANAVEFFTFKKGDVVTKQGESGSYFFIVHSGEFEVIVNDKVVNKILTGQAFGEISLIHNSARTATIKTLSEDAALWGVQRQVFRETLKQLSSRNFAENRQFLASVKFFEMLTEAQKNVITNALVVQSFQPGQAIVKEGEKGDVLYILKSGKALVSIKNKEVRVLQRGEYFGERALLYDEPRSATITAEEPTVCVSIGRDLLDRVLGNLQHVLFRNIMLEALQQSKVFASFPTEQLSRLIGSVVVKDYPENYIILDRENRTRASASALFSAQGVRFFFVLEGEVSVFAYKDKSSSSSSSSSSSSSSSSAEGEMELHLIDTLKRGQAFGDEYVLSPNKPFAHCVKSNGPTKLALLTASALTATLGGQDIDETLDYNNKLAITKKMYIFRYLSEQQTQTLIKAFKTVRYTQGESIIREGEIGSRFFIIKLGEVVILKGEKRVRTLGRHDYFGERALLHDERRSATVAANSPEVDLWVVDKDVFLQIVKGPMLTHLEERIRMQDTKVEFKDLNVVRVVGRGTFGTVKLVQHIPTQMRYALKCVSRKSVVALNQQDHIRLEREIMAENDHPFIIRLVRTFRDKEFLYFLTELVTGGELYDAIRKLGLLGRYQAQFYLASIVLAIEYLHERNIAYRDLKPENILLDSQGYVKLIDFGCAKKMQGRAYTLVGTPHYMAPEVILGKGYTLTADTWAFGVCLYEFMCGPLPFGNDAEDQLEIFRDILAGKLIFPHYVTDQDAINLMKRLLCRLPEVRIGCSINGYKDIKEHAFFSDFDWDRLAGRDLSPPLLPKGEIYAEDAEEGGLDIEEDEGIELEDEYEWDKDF

As for `CN1CCC(c2cc(-c3ccncc3)c(-c3ccc(F)cc3)[nH]2)CC1`, in data set [1], the IC50 (commonly the concentration that inhibits the measured activity by half) was less than 0.001 µM.

As to `COc1c(Cl)c(C)c(Cl)c(O)c1C(=O)c1c(C=O)c(O)cc(O)c1CC=C(C)C` [PESTALONE], the results for the MIC against Enterococcus faecium and against Staphylococcus aureus were 0.078 mg/L (≈ 0.178 µM) and 0.037 mg/L (≈ 0.0842 µM), respectively.

In the case of `CC(C)=CCc1ccc(O)c(C=O)c1C(=O)c1cc(C)cc(OCC(O)C(C)(C)O)c1O` (stereo not given) [TENELLONE A], the Activity entry in the data set listed under Gallus gallus is “Non-toxic”. Also, the figures for the IC50 (in the data set with Toxoplasma gondii; in data set [1]) were 1.8 µM and 12.6 µM, respectively. Further, the result in the data set on Eimeria tenella was inactive.

As for `CC(C)=CCc1ccc(O)c(C=O)c1C(=O)c1cc(C)cc2c1OC(C(C)(C)O)CO2` (stereo not given) [TENELLONE B], the Activity result in the data set listed under Gallus gallus is “Non-toxic”. In data set [1], this compound came in with an IC50 of 8.7 µM. Besides, in the data set on Eimeria tenella, the result was inactive.
